Measured values taken from the NIST ThermoML archive (doi:10.1016/j.fluid.2005.03.028).
Numbers after ± are expanded uncertainties.

Assay: excess molar enthalpy (molar enthalpy of mixing); xn = mol fraction of the nth substance listed
Conditions: 303.15 K, 101.3 kPa, Liquid

Cc1cncc(C)c1 [3,5-dimethylpyridine] + CCCCCCC
Conditions	excess molar enthalpy [kJ/mol]
x1 = 0.0712	0.398 ± 0.017
x1 = 0.2287	0.91 ± 0.031
x1 = 0.2961	1.08 ± 0.037
x1 = 0.3799	1.18 ± 0.04
x1 = 0.4475	1.24 ± 0.042
x1 = 0.497	1.23 ± 0.041
x1 = 0.5013	1.23 ± 0.041
x1 = 0.5962	1.19 ± 0.04
x1 = 0.6871	1.04 ± 0.035
x1 = 0.7428	0.915 ± 0.031
x1 = 0.85	0.574 ± 0.022

Cc1cccc(C)n1 [2,6-dimethylpyridine] + CCCCCCC
Conditions	excess molar enthalpy [kJ/mol]
x1 = 0.1137	0.476 ± 0.019
x1 = 0.1939	0.668 ± 0.024
x1 = 0.26	0.813 ± 0.028
x1 = 0.313	0.881 ± 0.03
x1 = 0.318	0.902 ± 0.031
x1 = 0.365	0.944 ± 0.032
x1 = 0.4264	0.991 ± 0.034
x1 = 0.46	1.01 ± 0.034
x1 = 0.5077	1.01 ± 0.034
x1 = 0.58	0.951 ± 0.033
x1 = 0.7064	0.845 ± 0.029
x1 = 0.7851	0.69 ± 0.025
x1 = 0.857	0.513 ± 0.02

Cc1cncc(C)c1 [3,5-dimethylpyridine] + CCCCCCCC
Conditions	excess molar enthalpy [kJ/mol]
x1 = 0.1056	0.555 ± 0.021
x1 = 0.2504	1 ± 0.034
x1 = 0.3971	1.23 ± 0.041
x1 = 0.4266	1.26 ± 0.042
x1 = 0.4971	1.27 ± 0.043
x1 = 0.5313	1.27 ± 0.043
x1 = 0.5417	1.27 ± 0.042
x1 = 0.6032	1.22 ± 0.041
x1 = 0.7289	0.99 ± 0.034
x1 = 0.8127	0.77 ± 0.027
x1 = 0.914	0.383 ± 0.017

Cc1cccc(C)n1 [2,6-dimethylpyridine] + CCCCCCCC
Conditions	excess molar enthalpy [kJ/mol]
x1 = 0.108	0.5 ± 0.02
x1 = 0.199	0.72 ± 0.026
x1 = 0.202	0.76 ± 0.027
x1 = 0.346	0.976 ± 0.033
x1 = 0.413	1.03 ± 0.035
x1 = 0.506	1.05 ± 0.036
x1 = 0.597	1.03 ± 0.035
x1 = 0.698	0.906 ± 0.031
x1 = 0.708	0.871 ± 0.03

Cc1cncc(C)c1 [3,5-dimethylpyridine] + CCCCCC
Conditions	excess molar enthalpy [kJ/mol]
x1 = 0.1064	0.574 ± 0.022
x1 = 0.1889	0.839 ± 0.029
x1 = 0.314	1.08 ± 0.037
x1 = 0.434	1.15 ± 0.039
x1 = 0.5119	1.17 ± 0.039
x1 = 0.6092	1.09 ± 0.037
x1 = 0.7259	0.894 ± 0.031
x1 = 0.775	0.798 ± 0.028
x1 = 0.8934	0.409 ± 0.018
x1 = 0.9495	0.206 ± 0.013

Cc1cccc(C)n1 [2,6-dimethylpyridine] + CCCCCC
Conditions	excess molar enthalpy [kJ/mol]
x1 = 0.1061	0.42 ± 0.018
x1 = 0.2206	0.716 ± 0.025
x1 = 0.2931	0.846 ± 0.029
x1 = 0.3822	0.901 ± 0.031
x1 = 0.4338	0.924 ± 0.032
x1 = 0.4341	0.92 ± 0.032
x1 = 0.4507	0.946 ± 0.032
x1 = 0.5516	0.933 ± 0.032
x1 = 0.6172	0.9 ± 0.031
x1 = 0.7034	0.798 ± 0.028
x1 = 0.7949	0.592 ± 0.022
x1 = 0.884	0.353 ± 0.016
